From US20250361546A1, “SCREENING METHODS FOR RNA-CONTROLLING COMPOUNDS” (Veritas In Silico Inc., priority 2018, published 2025)

Key:
Type in all cases: binding
[1] = test system: MGA-N_FAM/BHQ1; test: FRET probe Tm measurement, single probe and 4-probe mixture (Example 5); conditions: 100 μM compound
Experimental: • FRET probe with FAM at the 5′ end and BHQ1 modification at the 3′ end
(§1) The final levels were 50 nM RNA, 20 mM phosphate buffer (pH 6 5), 50 mM KCl, 1% DMSO, 0.1 μg/μl Bovine Serum Albumin (Takara Bio) or 0.05%-0.1% Tween-20, or 0.05%-0.1% Triton X-100 per probe. In addition, 10 μl solutions were mixed to make 100 μM compound if small compounds were included and incubated at room temperature for 10 minutes.
(§2) The solutions were dispensed into a 384 well plate, and the plate was kept in a qPCR machine (manufactured by CFX 384 Touch (Bio-Rad Co., Ltd.) for 15 seconds after the temperature was raised to 95° C., which was rapidly cooled to 4° C. and kept for 2 minutes, and then kept at 25° C. for 5 minutes. Then, it was raised to over 95° C. about 40 minutes, and the fluorescence output was measured every 1° C. in 10 seconds. For numerical differentiation of the fluorescence output, a total of seven points from the measured temperature T to plus or minus 3° C. were approximated to a straight line by the least squares method, and the slope was defined as the slope (D1) at the point of the measured temperature T. Similarly, the value of D1 was again subjected to numerical differentiation in the same manner, and the slope (D2) at the point of the measured temperature T was obtained. Here, in parts where the D1 value was 10 or more, the measured temperature T_D1MAX was obtained with D1 at maximum. A total of seven points from this measured temperature T_D1MAX to plus and minus 3° C. were used to calculate the value of T_INF at Y=0 by setting X as T and Y as D2 when the seven points were actually approximated to the line by least squares, and this was set as the Tm value. In addition, the difference (Tm−Tm_NO) in the Tm value (Tm_NO) between wells containing the compound and wells without it was acquired as ΔTm.
(§3) This work was carried out for single-probe wells and four-probe wells, respectively, to obtain the Tm and ΔTm values shown in Table 6 below.

[2] = test system: TAR21-G3_Texas Red/BHQ2; test: as above; conditions: 100 μM compound
Experimental: • FRET probe with Texas Red at the 5′ end and BHQ2 modification at the 3′ end
as §1, §2, §3

[3] = test system: A-4-G_Cy5/BHQ2; test: as above; conditions: 100 μM compound
Experimental: (§4) Four FRET probes with fluorescent modifications corresponding to four wavelengths detectable by a measuring device (CFX384 Touch manufactured by Bio-Rad) were prepared. • FRET probe with Cy5 at the 5′ end and BHQ2 modification at the 3′ end
as §1, §2, §3

[4] = test system: FMNA_Alexa532/BHQ1; test: as above; conditions: 100 μM compound
Experimental: • FRET probe with HEX-equivalent Alexa 532 at the 5′ end and BHQ1 modification at the 3′ end
as §1, §2, §3

[5] = test system: A-4-G_Cy5/BHQ2, MGA-N_FAM/BHQ1, FMNA_Alexa532/BHQ1, TAR21-G3_Texas Red/BHQ2; test: FRET probe Tm measurement, summary over four probes (Example 5); conditions: both single probes and mixed probes; 100 μM compound
Experimental: as §4
as §1, with “minutes. […]” for “minutes.”

[6] = test system: Survivin-native+ type probe (Cy5/BHQ2); test: FRET probe Tm measurement with single compounds and compound mixture (Example 6); conditions: for ΔTm: 100 μM compound per compound, 50 nM RNA
Experimental: (§5) A-4-G_Cy5/BHQ2 probe and the Survivin-native+type probe modified with Cy5 at the 5′ end and BHQ2 at the 3′ end were prepared as shown in Examples 2 and 5.
(§6) The final levels were 50 nM RNA, 20 mM phosphate buffer (pH 6 5), 50 mM KCl, 1% DMSO, 0.1 μg/μl Bovine Serum Albumin (Takara Bio), or 0.05%-0.1% Tween-20, or 0.05%-0.1% Triton X-100. Further, if a low-molecular weight compound was included, 10 μl solutions were mixed to give 100 μM compound per compound and incubated at room temperature for 10 minutes.
as §2

[7] = test system: A-4-G_Cy5/BHQ2 probe; test: as above; conditions: for ΔTm: 100 μM compound per compound, 50 nM RNA
Experimental: as §5, §6, §2

[8] = 4-probe mixture, FAM detection, 50 nM RNA per probe
[9] = 4-probe mixture, Texas Red detection, 50 nM RNA per probe
[10] = 4-probe mixture, Cy5 detection, 50 nM RNA per probe
[11] = 4-probe mixture, HEX detection, 50 nM RNA per probe

O=C(O)c1cn(C2CC2)c2cc(N3CCNCC3)c(F)cc2c1=O [CPFX, ciprofloxacin]
Tm (° C.) with compound [1, 8]: 74.22 °C | ΔTm (° C.) [1, 8]: 0.11 °C | Tm (° C.) with compound ([1]; Single probe, 50 nM RNA): 74.03 °C | ΔTm (° C.) ([1]; Single probe, 50 nM RNA): 0.33 °C | Tm (° C.) with compound [2, 9]: 85.75 °C | ΔTm (° C.) [2, 9]: −0.02 °C | Tm (° C.) with compound ([2]; Single probe, 50 nM RNA): 85.80 °C | ΔTm (° C.) ([2]; Single probe, 50 nM RNA): 0.07 °C | Tm (° C.) with compound [3, 10]: 68.96 °C | ΔTm (° C.) [3, 10]: 1.46 °C | Tm (° C.) with compound ([3]; Single probe, 50 nM RNA): 68.78 °C | ΔTm (° C.) ([3]; Single probe, 50 nM RNA): 1.41 °C | Tm (° C.) with compound [4, 11]: 78.07 °C | ΔTm (° C.) [4, 11]: −0.02 °C | Tm (° C.) with compound ([4]; Single probe, 50 nM RNA): 78.03 °C | ΔTm (° C.) ([4]; Single probe, 50 nM RNA): 0.09 °C | Tm increase (in words) [5]: Tm increase was obtained only at wavelengths corresponding to A-4-G_Cy5/BHQ2

CC1CCc2c(N3CCC(O)CC3)c(F)cc3c(=O)c(C(=O)O)cn1c23 (centres unmarked) [NDFX, nadifloxacin]
change of Tm value (in words) [6]: does not cause changes in the Tm value | ΔTm ([6]; Table 7, SV-NL): 0.01 | ΔTm ([6]; rounded): 0.0 °C | change of Tm value (in words) [7]: does not cause changes in the Tm value | ΔTm ([7]; Table 7, A-4-G): 0.15 | ΔTm ([7]; rounded): 0.2 °C
